# What was measured:
# C2C12 mouse myoblasts = assay: MTT tetrazolium reduction viability assay, C2C12 myoblasts; type: cell-based; conditions: 24 h; for viability (formazan absorbance at 570 nm, MTT): 1 nM to 1 mM, vs 0.1% DMSO vehicle
# Procedure: (§1) C2C12 mouse myoblasts and mouse embryonic fibroblasts (MEFs) were cultured in DMEM supplemented with 10% (v/v) FBS, 4500 mg/L glucose, 4 mM L-glutamine, 1 mM sodium pyruvate, 2% (v/v) MEM nonessential amino acid solution, and penicillin (50 I.U./mL)/streptomycin (50 μg/mL) solution (complete media). Cells were cultured in a humidified 5% CO2 atmosphere within a Thermo Forma Series II water-jacketed CO2 incubator maintained at 37° C. Cells were transferred to fresh 96- or 6-well plates (2,000 cells/well & 60,000 cells/well, respectively) in the evening prior to commencing tocopherol treatments.
# (§2) Each tocopherol was dissolved in sterile 100% DMSO to yield a 1 M stock solution. Less concentrated stock solutions were subsequently prepared using ten-fold serial dilutions. All tocopherol solutions were stored at −20° C. To treat cultured cells, media was replaced with complete media containing freshly-added tocopherol; the final amount of vehicle (DMSO) for all concentrations tested was 0.1% (v/v).
# (§3) Media was discarded, wells were washed once with phenol red-free complete culture media, and 100 μL/well phenol red-free complete culture media containing 0.45 mg/mL MTT was added. Two hours later, solubilization solution [40% (v/v) dimethylformamide, 2% (v/v) glacial acetic acid, 16% (w/v) sodium dodecyl sulfate, pH 4.7] was added (100 μL/well) and well contents were gently mixed by re-suspension to dissolve the formazan precipitate. Plates were incubated at room temperature in darkness for 2 h before recording absorbance at 570 nm using a Bio-Tek PowerWave Microplate UV-Vis spectrophotometer (Winooski, Vt., USA). For each plate, background signal averaged from cell-free wells containing vehicle treatments was subtracted
# as §3, with “subtracted.” for “subtracted”
# [1] = system: mouse embryonic fibroblasts (MEFs); assay: MTT tetrazolium reduction viability assay, MEFs; type: cell-based; conditions: 24 h; for viability (formazan absorbance at 570 nm, MTT): 1 nM to 1 mM, vs 0.1% DMSO vehicle
# Procedure: as §1, §2, §3
# as §3, with “subtracted.” for “subtracted”
# [2] = molecular target: T1, α-TTP (α-tocopherol transfer protein) (Homo sapiens, UniProt P49638); assay: Competitive displacement of TBtoc from pre-incubated complex with α-TTP; type: binding; conditions: 0.4 μM TBtoc pre-incubated with 0.4 μM α-TTP; competitor in dioxane; TKE buffer
# T1 sequence (P49638 1-278): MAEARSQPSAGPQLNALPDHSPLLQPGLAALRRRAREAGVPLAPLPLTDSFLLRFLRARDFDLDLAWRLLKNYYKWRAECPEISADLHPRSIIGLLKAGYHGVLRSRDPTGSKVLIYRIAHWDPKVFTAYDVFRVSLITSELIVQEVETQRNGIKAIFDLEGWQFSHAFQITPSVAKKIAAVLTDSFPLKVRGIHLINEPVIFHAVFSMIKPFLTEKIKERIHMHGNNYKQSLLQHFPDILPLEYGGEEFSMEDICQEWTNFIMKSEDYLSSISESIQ
# Procedure: When α-TTP is pre-incubated with TBtoc, competitive assays are possible by the incremental addition of a specific ligand such as natural α-tocopherol. Cholesterol served as a negative control (FIG. 5). About 57% of the bound fluorescence could be competed of α-TTP by α-tocopherol, whereas only about 8% was lost with cholesterol.
compound,measurement,setting,value
"Cc1c(C)c2c(c(C)c1O)CC[C@@](C)(CCC[C@H](C)CCC[C@H](C)CCCC(C)C)O2 [α-tocopherol, reference compound]","viability (formazan absorbance at 570 nm, MTT)",C2C12 mouse myoblasts,no sensitivity
same,"viability (formazan absorbance at 570 nm, MTT)",[1],no sensitivity
same,bound fluorescence competed off α-TTP,[2],About 57%
CC(C)CCC[C@@H](C)[C@H]1CC[C@H]2[C@@H]3CC=C4C[C@@H](O)CC[C@]4(C)[C@H]3CC[C@]12C [cholesterol],bound fluorescence competed off α-TTP,[2],about 8%
Cc1c(C)c2c(c(C)c1[19F])CC[C@@](C)(CCC[C@H](C)CCC[C@H](C)CCCC(C)C)O2 [F-Toc],"viability (formazan absorbance at 570 nm, MTT)",C2C12 mouse myoblasts,no sensitivity
same,cytotoxic concentration (no cytotoxicity up to stated concentration),C2C12 mouse myoblasts; MTT,> 1 mM
same,"viability (formazan absorbance at 570 nm, MTT)",[1],no sensitivity
same,cytotoxic concentration (no cytotoxicity up to stated concentration),[1]; MTT,> 1 mM
"Cc1c(C)c2c(c(C)c1I)CC[C@@](C)(CCCC(C)CCCC(C)CCCC(C)C)O2 (stereo partly drawn) [I-Toc, (2R)-6-iodo-2,5,7,8-tetramethyl-2-(4.8.12-trimethyl-tridecyl)-chroman]","viability (formazan absorbance at 570 nm, MTT)",C2C12 mouse myoblasts,no negative sensitivity
same,"viability (formazan absorbance at 570 nm, MTT)",[1],no negative sensitivity

# Reference: patent US20210230134A1, “VITAMIN E DERIVATIVES AND THEIR USE AS MULTI-SCALE IMAGING AGENTS” (EXACT DELIVERY INC., priority 2018, published 2021)
